Experimental data reported in patent EP3753560A1, “COMPOUNDS FOR THE TREATMENT OF NEUROMUSCULAR DISORDERS” (NMD Pharma A/S, priority 2019, dated 2020).

How the values were obtained:
[1] = system: isolated rat soleus muscles; experiment: Measurement of force in an in vitro model: recovery of nerve-stimulated contractile force of isolated soleus nerve-muscle preparations after tubocurarine; details: for Point increase (%): percentage of the initial force restored, 50 µM test compound, after 40 mins of compound exposure, in continued presence of 115 nM tubocurarine (90 mins pre-incubation), 30°C
Excerpt: • The terms "C1-3 alkyl" and "C1-5 alkyl" refers to a branched or unbranched alkyl group having from […] carbon atoms respectively, including but not limited to methyl, ethyl, prop-1-yl, prop-2-yl, 2-methyl-prop-1-yl, 2-methyl-prop-2-yl, 2,2-dimethyl-prop-1-yl, but-1-yl, but-2-yl, 3-methyl-but-1-yl, 3-methyl-but-2-yl, pent-1-yl, pent-2-yl and pent-3-yl. • The term "C3-5 cycloalkyl" and "C3-6 cycloalkyl" refers to a group having three to five or three to six carbon atoms respectively including a monocyclic or bicyclic carbocycle, including but not limited to cyclopropyl, cyclobutyl, cyclopentyl and cyclohexyl. • The term "C2-5 alkenyl" refers to a branched or unbranched alkenyl group having from two to five carbon atoms, two of which are connected by a double bond, including but not limited to ethenyl, propenyl, isopropenyl, butenyl, isobutenyl, pentenyl and isopentenyl. • The term "C2-5 alkynyl" refers to a branched or unbranched alkynyl group having from […] carbon atoms, two of which are connected by a triple bond, including but not limited to ethynyl, prop-1-ynyl, prop-2-ynyl, but-1-ynyl, but-2-ynyl, but-3-ynyl, buta-1,3-diynyl, pent-1-ynyl, pent-2-ynyl, pent-3-ynyl, pent-4-ynyl, penta-2,4-diynyl and penta-1,3-diynyl. • The term "5 membered aromatic heterocycle" refers to an aromatic group having five carbon atoms wherein between 1 and 3 carbon atoms in the ring have been replaced with a heteroatom selected from the group comprising nitrogen, sulphur and oxygen. Binding to the heterocycle may be at the position of the heteroatom or via a carbon atom of the heterocycle. […] The term "plasma half-life" is the time that it takes the compound to lose one-half of its pharmacologic activity in the blood plasma. • The term "treatment" refers to the combating of a disease or disorder. "Treatment" or "treating," as used herein, includes any desirable effect on the symptoms or pathology of a disease or condition as described herein, and may include even minimal changes or improvements in one or more measurable markers of the disease or condition being treated. […] In some embodiments, the term "treatment" encompasses amelioration and prevention. • The term "amelioration" refers to moderation in the severity of the symptoms of a disease or condition. Improvement in a patient's condition, or the activity of making an effort to correct, or at least make more acceptable, conditions that are difficult to endure related to patient's conditions is considered "ameliorative" treatment. • The term "prevent" or "preventing" refers to precluding, averting, obviating, forestalling, stopping, or hindering something from happening, especially by advance action. • The term "reversal" or "reversing" refers to the ability of a compound to restore nerve-stimulated force in skeletal muscle exposed either ex vivo or in vivo to a non-depolarizing neuromuscular blocking agent or another pharmaceutical that is able to depress neuromuscular transmission • The term "non-depolarizing blockers" refers to pharmaceutical agents that antagonize the activation of acetylcholine receptors at the post-synaptic muscle fibre membrane by blocking the acetylcholine binding site on the receptor.
The current disclosure relates to compounds that inhibit CIC-1 ion channels and increase muscle excitability and thereby improve muscle function in clinical conditions where muscle activation is failing. Such conditions result in loss of contractile function of skeletal muscle, weakness and excessive fatigue. In this series of experiments the compounds were tested for their ability to restore contractile function of isolated rat muscle when the neuromuscular transmission had been compromised akin to neuromuscular disorders.
Experimentally, soleus muscles from 4-5 wk old rats were isolated with the motor nerve remaining attached. […]

[2] = target: T1, human CIC-1 channels (Homo sapiens, UniProt P35523); experiment: Automated whole cell patch-clamp (Qpatch 16) on CHO cells expressing human CIC-1; format: cell-based; details: difference in half activation voltage between cell patches treated intracellularly with compound and control (vehicle) patches; positive shift reflects CIC-1 inhibition
T1 construct: host or cells: CHO (Chinese hamster ovary) cells, constitutive expression
T1 sequence (P35523 whole entry): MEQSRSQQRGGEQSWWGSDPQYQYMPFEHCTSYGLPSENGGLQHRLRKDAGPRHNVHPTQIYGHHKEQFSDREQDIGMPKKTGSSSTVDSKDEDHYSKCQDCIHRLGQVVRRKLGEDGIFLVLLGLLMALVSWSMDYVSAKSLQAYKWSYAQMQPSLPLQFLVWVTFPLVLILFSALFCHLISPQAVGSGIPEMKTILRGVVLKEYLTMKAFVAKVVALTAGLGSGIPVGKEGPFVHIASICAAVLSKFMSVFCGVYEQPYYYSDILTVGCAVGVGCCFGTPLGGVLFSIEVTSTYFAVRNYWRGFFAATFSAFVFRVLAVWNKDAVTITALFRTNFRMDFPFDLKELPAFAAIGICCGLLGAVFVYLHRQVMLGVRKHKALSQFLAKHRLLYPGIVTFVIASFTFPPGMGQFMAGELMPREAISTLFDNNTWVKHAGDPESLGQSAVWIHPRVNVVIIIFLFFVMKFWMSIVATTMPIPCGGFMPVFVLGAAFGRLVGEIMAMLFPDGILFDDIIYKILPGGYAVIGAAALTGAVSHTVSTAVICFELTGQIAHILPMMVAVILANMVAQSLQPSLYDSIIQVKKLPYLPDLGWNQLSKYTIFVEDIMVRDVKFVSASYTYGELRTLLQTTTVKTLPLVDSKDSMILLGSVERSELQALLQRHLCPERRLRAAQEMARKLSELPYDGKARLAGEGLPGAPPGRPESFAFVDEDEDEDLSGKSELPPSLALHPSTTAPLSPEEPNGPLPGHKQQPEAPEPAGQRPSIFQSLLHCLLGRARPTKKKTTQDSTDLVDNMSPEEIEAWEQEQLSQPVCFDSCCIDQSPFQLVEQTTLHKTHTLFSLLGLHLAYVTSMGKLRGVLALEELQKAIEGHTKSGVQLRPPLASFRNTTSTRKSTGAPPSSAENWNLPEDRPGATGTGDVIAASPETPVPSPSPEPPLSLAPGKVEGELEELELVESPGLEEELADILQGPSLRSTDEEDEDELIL
Method: Experiments were performed using an automated patch clamp system that allowed high throughput testing of whole cell patches together with both intracellular and extracellular addition of compound.
Automated whole cell patch clamp experiments were performed with the Qpatch 16 system (Sophion Bioscience, Ballerup, Denmark) at room temperature. Data acquisition and analysis were performed in the Qassay software (ver. 5.6, Odense).
To evoke CIC-1 currents in whole cell patches, the membrane potential was initially stepped from a holding potential of -30 mV to +60 mV for 100 ms and then to various test voltages (sweeps) ranging from +120 mV to -140 mV in steps of 20 mV for 300 ms. To obtain tail currents, the membrane potential was stepped to -100 mV after each test voltage for 300 ms and then relaxed to -30 mV for 2 sec between sweeps (Figure 2). I/V relationships for whole cell instant and steady state current amplitudes were obtained by plotting average current densities at the beginning and at the end of the 300 ms step against the membrane potential (Figure 3).
In order to determine the relative overall open probability (P0), the instantaneous tail currents were normalized to the maximal tail current obtained following the most positive voltage step and plotted against the test voltage. […]
To evaluate the compound effect on CIC-1, when applied directly to the intracellular side of the cell membrane, the half activation voltage, V1/2, was determined from whole cell patches with compound added to the intracellular solution and then compared to V1/2 determined from control cell patches with only vehicle added to the intracellular solution. Additionally, the effect of extracellular added compound was evaluated by determine V1/2 and steady state current amplitudes before and after exchanging the extracellular solution to contain compound.
The difference in half activation voltage of CIC-1 channels, ΔV1/2, was determined as the difference between the cell patches treated intracellularly with compound and control cells patches and is reported in Table 4 below. […]

| ΔV1/2 (mV) [2] | SMILES | Point increase (%) [1] | average force (AUC) relative to initial force ([1]; Figure 1: 50 µM compound added after 90 min incubation in tubocurarine, 3 muscles) |
| --- | --- | --- | --- |
| – | O=C(O)[C@@H]1CCc2cc(Br)cc(-c3ccon3)c2O1 (single isomer, unassigned) [Compound A-13] | 24% | – |
| – | O=C(O)Cn1cc(-c2ccon2)c2cc(Cl)ccc21 [Compound A-4, 2-[5-chloro-3-(1,2-oxazol-3-yl)-1H-indol-1-yl]acetic acid] | 12% | – |
| – | O=C(O)Cn1cc(-c2ccon2)c2cc(Br)ccc21 [Compound A-12, 2-[5-bromo-3-(1,2-oxazol-3-yl)-1H-indol-1-yl]acetic acid] | 13% | – |
| 8.4 mV | O=C(O)[C@@H]1CCCN1c1ccc(Br)cc1F [Compound A-14, (2S)-1-(4-bromo-2-fluorophenyl)pyrrolidine-2-carboxylic acid] | 26% | – |
| – | O=C(O)C1CCc2cc(Br)cc(-c3ccon3)c2O1 (stereo not drawn) [Compound A-15, 6-bromo-8-(1,2-oxazol-3-yl)-3,4-dihydro-2H-1-benzopyran-2-carboxylic acid] | – | recovered |
| 27.9 mV | O=C(O)Cn1ccc2cc(Br)ccc21 [Compound A-24, 2-(5-bromo-1H-indol-1-yl)acetic acid] | 10% | – |
| 5.5 mV | CC(C(=O)O)n1ccc2cc(Br)ccc21 (stereo not drawn) [Compound A-25, 2-(5-bromo-1H-indol-1-yl)propanoic acid] | – | – |
